Patent US6060482A, “Triazaspirodecanone-methylchromans” (Bayer Aktiengesellschaft, priority 1991, dated 2000)
Where a name gives a salt, the structure may show the parent alone.

Legend:
[1] = target: 5-HT1 receptor; experiment: Affinity for the 5-HT1 receptor, receptor binding studies with 3H-serotonin on calf hippocampus membrane preparations
From the text: Affinity for the 5-HT1 receptor
In Table 1, the high affinity of the compounds according to the invention for 5-hydroxytryptamine receptors of the subtype 1 is represented by way of example. The values given are data which have been determined from receptor binding studies using calf hippocampus membrane preparations. The radioactively labelled ligand used for this was ^3 H-serotonin.

[2] = target: T1, dopamine D2 receptor (Rattus norvegicus, UniProt P61169); experiment: Dopamine D2 receptor test, binding of 3H-sulpiride on membranes from the striatum of the rat; details: Ki calculated from IC50 of displacement curves
T1 construct: membranes from the striatum of the rat; from tissue; host or cells: rat striatum membranes
T1 sequence (P61169 whole entry): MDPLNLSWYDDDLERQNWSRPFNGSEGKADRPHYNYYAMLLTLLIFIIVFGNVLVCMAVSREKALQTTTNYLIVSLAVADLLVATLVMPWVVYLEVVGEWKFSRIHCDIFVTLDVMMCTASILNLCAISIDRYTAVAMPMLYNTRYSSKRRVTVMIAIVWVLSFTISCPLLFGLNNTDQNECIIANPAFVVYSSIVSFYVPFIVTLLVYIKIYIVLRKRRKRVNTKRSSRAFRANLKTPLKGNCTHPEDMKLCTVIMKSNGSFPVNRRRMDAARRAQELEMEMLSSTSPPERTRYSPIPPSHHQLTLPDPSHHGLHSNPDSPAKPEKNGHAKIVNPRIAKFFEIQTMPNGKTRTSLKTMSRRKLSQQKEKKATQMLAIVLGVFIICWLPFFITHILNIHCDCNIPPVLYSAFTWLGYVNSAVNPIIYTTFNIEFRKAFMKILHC
Description: Dopamine D2 receptor test
This test is carried out according to the following reference: Imafuku J. (1987), Brain Research 402; 331-338.
In this test, the binding of the selective D2 -receptor antagonist ^3 H-sulpiride on membranes from the striatum of the rat is measured. Compounds which bind to dopamine D2 -receptors inhibit the binding of ^3 H-sulpiride in a concentration-dependent manner. IC50 values are determined from the displacement curves and the inhibition constants Ki are calculated from these.

[3] = target: T2, 5-HT1A receptor (Bos taurus, UniProt F6Q2H9); experiment: Affinity for the 5-HT1A receptor, binding of 3H-ipsapirone in calf hippocampus membranes
T2 construct: 5-HT1A receptors in calf hippocampus membranes; from tissue; host or cells: calf hippocampus membranes
T2 sequence (F6Q2H9 1-422): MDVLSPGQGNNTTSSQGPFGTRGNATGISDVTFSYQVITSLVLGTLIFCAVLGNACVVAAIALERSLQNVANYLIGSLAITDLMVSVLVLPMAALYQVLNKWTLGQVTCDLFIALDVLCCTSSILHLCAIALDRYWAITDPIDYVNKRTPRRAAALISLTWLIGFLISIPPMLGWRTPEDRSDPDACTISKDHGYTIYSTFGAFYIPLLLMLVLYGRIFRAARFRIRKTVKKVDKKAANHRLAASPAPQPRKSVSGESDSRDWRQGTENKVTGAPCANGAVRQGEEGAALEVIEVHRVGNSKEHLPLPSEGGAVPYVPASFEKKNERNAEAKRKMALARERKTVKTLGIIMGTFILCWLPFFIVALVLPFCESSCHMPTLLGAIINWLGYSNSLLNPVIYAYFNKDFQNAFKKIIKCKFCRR
Description: Affinity for the 5-HT1A receptor
[W. U. Dompert et al., Naunyn-Schmiedeberg's Arch. Pharmacol. (1985), 328, 467-470].
In this test, the binding of ^3 H-ipsapirone to 5-HT1A receptors in calf hippocampus membranes is measured.

SMILES | Ki [1] [nM] | Ki [2] [nM] | Ki [3] [nM]
O=C1NCN(c2ccccc2)C12CCN(CC1CCc3ccccc3O1)CC2 (centres unmarked) [Example 1, 8-(Chroman-2-yl-methyl)-1-phenyl-1,3,8-triazaspiro[4.5]-decan-4-one] | 2 | 0.2 | –
COc1cccc2c1OC(CN1CCC3(CC1)C(=O)NCN3c1ccccc1)CC2 (centres unmarked) [Example 2] | 1.5 | 0.3 | –
O=C1NCN(c2ccccc2)C12CCN(C[C@@H]1CCc3ccccc3O1)CC2 [Example 3] | – | 0.6 | –
O=C1NCN(c2ccccc2)C12CCN(C[C@H]1CCc3ccccc3O1)CC2 [Example 4] | 1 | – | –
O=C1NCN(c2ccccc2)C12CCN(CC1CCc3ccccc3O1)CC2 (centres unmarked) [Example 5, 8-(Chroman-2-yl-methyl)-1-phenyl-1,3,8-triazaspiro[4.5]-decan-4-one HCl salt] | – | – | 1
COc1cccc2c1OC(CN1CCC3(CC1)C(=O)NCN3c1ccccc1)CC2 (centres unmarked) [Example 6] | – | – | 1
